Target: T1, PPARγ-LBD (UniProt ID: P37231-2) (Homo sapiens, UniProt P37231)
T1 construct: PPARγ-LBD (UniProt ID: P37231-2) was expressed and purified in insect system; made in house
T1 sequence (P37231 238-503 limits assumed): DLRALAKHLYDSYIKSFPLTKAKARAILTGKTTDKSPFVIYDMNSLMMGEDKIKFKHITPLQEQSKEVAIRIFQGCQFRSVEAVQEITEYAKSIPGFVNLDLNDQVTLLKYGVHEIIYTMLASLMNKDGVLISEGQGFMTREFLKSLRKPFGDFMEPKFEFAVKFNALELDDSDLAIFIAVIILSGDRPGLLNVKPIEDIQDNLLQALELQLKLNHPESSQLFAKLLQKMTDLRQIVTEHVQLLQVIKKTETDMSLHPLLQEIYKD
Assay: PPARγ-SMRT recruitment assay (TR-FRET)
Format: biochemical
Details: for EC50: TR-FRET, SMRT peptide recruitment to PPARγ-LBD, 120 min pre-incubation
Procedure: PPARγ TR-FRET assay was initiated to evaluate potential activatory effect of the compounds of the present disclosure for SMRT recruitment to PPARγ protein. PPARγ-LBD (UniProt ID: P37231-2) was expressed and purified in insect system and stored at −80° C. in aliquots. Biotinylated SMRT peptide was synthesized (Biotin-[…]). 5 μL protein solution mixture consisting of 10 nM PPARγ-LBD and 2 nM Anti-His Eu (Cisbio, 61HISKLA) in assay buffer (25 mM HEPES pH7.4, 25 mM KCl, 1 mM EDTA, 0.01% BSA, 0.01% Tween-20, 1 mM TCEP) was added to 384-well plates containing duplicate 10-point dose response titration of compounds in 5 μL assay buffer (1% f.c. DMSO(v/v)). After 120 min pre-incubation at room temperature, 5 μL peptide solution mixture consisting of 50 nM Biotin-SMRT peptide and 25 nM Streptavidin-XL665 (Cisbio, 610SAXLA) added to plates. Plates were incubated for 60 min. and read in CLARIOstar Plus plate reader with Ex/Em 620 nm/[…]. Average TR-FRET ratio of high control (Wells with 10 uM control compound) was calculated as High Control (HC). Average TR-FRET ratio of low control (Wells with 1% DMSO) was calculated as Low control (LC). For one compound, top % is the max value of % Activation.
EC50 values were determined by fitting the data to the standard 4 parameters with Hill Slope using GraphPad Prism software. […] ND: No Determine.

| SMILES | Emax (1 h, max value of % Activation, high control 10 uM control compound, low control 1% DMSO, read-out: Top %) [%] | EC50 [nM] |
| --- | --- | --- |
| CS(=O)(=O)c1ccc(C#N)cc1-c1cc(=O)c2c(F)c(/C=C/c3ccccc3)c(F)cc2[nH]1 [Example 53, (E)-3-(5,7-Difluoro-4-oxo-6-styryl-1,4-dihydroquinolin-2-yl)-4-(methylsulfonyl)benzonitrile] | 650 | < 100 |
| Cn1nnnc1Sc1ccc(C#N)cc1-c1cc(=O)c2c(F)cc(F)cc2[nH]1 [Example 54, 3-(5,7-Difluoro-4-oxo-1,4-dihydroquinolin-2-yl)-4-((1-methyl-1H-tetrazol-5-yl)thio)benzonitrile] |  | > 1000 |
| COc1cc(-c2cc(C#N)ccc2S(C)(=O)=O)nc2cc(F)c(C#CC(C)(C)F)c(F)c12 [Example 55, 3-(5,7-Difluoro-6-(3-fluoro-3-methylbut-1-yn-1-yl)-4-methoxyquinolin-2-yl)-4-(methylsulfonyl)benzonitrile] |  | > 1000 |
| Cc1ccc(S(C)(=O)=O)c(-c2cc(=O)c3c(F)c(CCC4CCOCC4)c(F)cc3[nH]2)c1 [Example 56, 5,7-Difluoro-2-(5-methyl-2-(methylsulfonyl)phenyl)-6-(2-(tetrahydro-2H-pyran-4-yl)ethyl)quinolin-4(1H)-one] |  | 100 to 1000 |

Source: patent US20260274799A1, “HETEROCYCLIC DERIVATIVES, COMPOSITIONS AND USES THEREOF” (DANATLAS PHARMACEUTICALS CO., LTD., priority 2023, published 2026)
